In brackets after ≈: the same amount, converted by molar mass.
Columns and labels:
SNU-354 = experiment: Cytotoxicity against human SNU354 cells; type: functional, cell-based
[1] = Cytotoxicity against mouse sarcoma 180 cells; type: functional, cell-based
[2] = Cytotoxicity against human SNUC4 cells; type: functional, cell-based; details: SNU-C4
[3] = molecular target: Aldo-keto reductase family 1 member B1 (Rattus norvegicus, UniProt P07943); experiment: Inhibition of rat lens aldose reductase
SNU1 = experiment: Cytotoxicity against human SNU1 cells; type: functional, cell-based
K562 = experiment: Cytotoxicity against human K562 cells at 10 ug/mL; type: functional
[4] = Cytotoxicity against human WM1341 cells at 10 ug/mL; type: functional
Jurkat = experiment: Cytotoxicity against human Jurkat cells at 10 ug/mL; type: functional
[5] = Cytotoxicity against human RPM18226 cells at 10 ug/mL; type: functional; details: RPMI-8226
HL-60 = experiment: Cytotoxicity against human HL60 cells at 10 ug/mL; type: functional
[6] = Cytotoxicity against human PLC/PRF/5 cells; type: functional; details: read-out: ED50 (the source's name)
KB = experiment: Cytotoxicity against human KB cells; type: functional, cell-based; details: Homo sapiens, KB; read-out: ED50 (the source's name)
[7] = Inhibition of L-glutamate transporter
[8] = molecular target: Sodium-dependent dopamine transporter (Homo sapiens, UniProt Q01959); experiment: Inhibition of dopamine uptake at DAT
[9] = Inhibition of gamma aminobutyric acid transporter
[10] = molecular target: Sodium-dependent serotonin transporter (Homo sapiens, UniProt P31645); experiment: Inhibition of serotonin transporter
[11] = molecular target: Sodium-dependent noradrenaline transporter (Homo sapiens, UniProt P23975); experiment: Inhibition of noradrenaline transporter
A549 = experiment: Cytotoxicity against human A549 cells; type: functional, cell-based; details: Homo sapiens, A549
[12] = Cytotoxicity against human Anip-973 cells; type: functional, cell-based
[13] = Cytotoxicity against human Bel-7721 cells; type: functional, cell-based

Chain of Sodium-dependent noradrenaline transporter (P23975 whole entry): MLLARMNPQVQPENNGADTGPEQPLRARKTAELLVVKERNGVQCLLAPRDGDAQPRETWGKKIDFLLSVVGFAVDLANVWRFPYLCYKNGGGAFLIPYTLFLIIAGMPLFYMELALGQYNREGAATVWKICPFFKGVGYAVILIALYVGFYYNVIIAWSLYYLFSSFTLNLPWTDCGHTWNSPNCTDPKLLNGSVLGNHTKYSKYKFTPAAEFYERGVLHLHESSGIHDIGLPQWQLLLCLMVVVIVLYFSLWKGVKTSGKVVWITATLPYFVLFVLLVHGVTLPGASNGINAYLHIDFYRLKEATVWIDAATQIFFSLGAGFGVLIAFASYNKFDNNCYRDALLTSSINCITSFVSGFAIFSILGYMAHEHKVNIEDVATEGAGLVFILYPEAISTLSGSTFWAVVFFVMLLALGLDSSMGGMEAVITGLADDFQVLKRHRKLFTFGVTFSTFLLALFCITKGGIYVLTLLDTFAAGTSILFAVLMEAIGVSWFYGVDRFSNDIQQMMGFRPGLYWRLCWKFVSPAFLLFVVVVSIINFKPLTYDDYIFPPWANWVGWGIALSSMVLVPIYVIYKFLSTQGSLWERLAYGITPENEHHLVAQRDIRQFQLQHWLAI
Chain of Sodium-dependent dopamine transporter (Q01959 whole entry): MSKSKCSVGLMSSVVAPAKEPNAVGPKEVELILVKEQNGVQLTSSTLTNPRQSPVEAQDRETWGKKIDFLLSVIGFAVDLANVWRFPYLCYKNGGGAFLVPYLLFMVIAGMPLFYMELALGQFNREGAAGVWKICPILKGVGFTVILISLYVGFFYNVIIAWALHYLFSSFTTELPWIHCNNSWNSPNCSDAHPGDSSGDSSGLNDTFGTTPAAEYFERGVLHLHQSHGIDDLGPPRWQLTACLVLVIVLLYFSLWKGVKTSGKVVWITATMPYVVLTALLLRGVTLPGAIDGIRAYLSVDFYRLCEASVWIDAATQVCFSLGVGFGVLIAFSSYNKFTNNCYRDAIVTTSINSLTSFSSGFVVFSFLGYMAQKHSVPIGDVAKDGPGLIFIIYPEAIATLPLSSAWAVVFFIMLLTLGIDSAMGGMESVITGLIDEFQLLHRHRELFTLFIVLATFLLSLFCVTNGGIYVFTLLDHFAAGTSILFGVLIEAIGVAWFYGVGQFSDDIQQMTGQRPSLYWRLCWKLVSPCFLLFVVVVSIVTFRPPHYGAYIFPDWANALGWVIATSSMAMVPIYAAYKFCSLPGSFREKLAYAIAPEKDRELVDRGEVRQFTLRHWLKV
Chain of Sodium-dependent serotonin transporter (P31645 whole entry): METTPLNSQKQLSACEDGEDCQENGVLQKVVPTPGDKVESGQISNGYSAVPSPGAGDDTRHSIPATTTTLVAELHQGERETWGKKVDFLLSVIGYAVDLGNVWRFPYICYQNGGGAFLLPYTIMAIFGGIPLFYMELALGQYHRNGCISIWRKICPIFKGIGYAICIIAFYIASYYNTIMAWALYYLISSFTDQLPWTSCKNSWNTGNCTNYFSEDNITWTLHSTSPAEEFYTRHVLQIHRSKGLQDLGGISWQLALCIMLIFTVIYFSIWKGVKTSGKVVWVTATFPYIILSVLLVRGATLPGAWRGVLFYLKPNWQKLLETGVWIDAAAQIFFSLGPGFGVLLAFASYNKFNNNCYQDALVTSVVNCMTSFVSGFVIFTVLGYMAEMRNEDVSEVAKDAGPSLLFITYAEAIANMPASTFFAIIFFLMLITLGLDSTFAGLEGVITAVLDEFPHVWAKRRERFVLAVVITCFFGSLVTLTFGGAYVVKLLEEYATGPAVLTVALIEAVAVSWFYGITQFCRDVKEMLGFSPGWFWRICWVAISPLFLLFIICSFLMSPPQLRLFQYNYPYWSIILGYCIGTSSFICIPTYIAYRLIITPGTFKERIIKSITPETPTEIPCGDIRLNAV

For `CC(C)[C@@H](C)/C=C/[C@@H](C)[C@H]1CC[C@@H]2[C@]1(C)CC[C@H]1[C@]23C=C[C@]2(C[C@@H](O)CC[C@]12C)OO3` [ERGOSTEROL PEROXIDE], which IC50 (SNU-354) is on record?
The IC50 was 158 µM.

What about the IC50 [1] of the same compound?
Its IC50 is 74.1 µM.

What about the IC50 [2] of the same compound?
Its IC50 is 84.6 µM.

And the IC50 [3]?
Its IC50 is 35.9 µM.

What about the IC50 (SNU1) of the same compound?
The IC50 was 18.7 µM.

What does the source list for `CC(C)[C@@H](C)/C=C/[C@@H](C)[C@H]1CC[C@@H]2[C@]1(C)CC[C@H]1[C@]23C=C[C@]2(C[C@@H](O[C@@H]4O[C@H](CO)[C@@H](O)[C@H](O)[C@H]4O)CC[C@]12C)OO3`?
inhibition at 10 µg/mL (K562): 10%; inhibition at 10 µg/mL [4]: 10%; inhibition at 10 µg/mL (Jurkat): 10%; inhibition at 10 µg/mL [5]: 10%; inhibition at 10 µg/mL (HL-60): 10%

Which EC50 [6] does the source give for `CC(C)C(C)/C=C/C(C)[C@H]1CC[C@@H]2[C@]1(C)CC[C@H]1[C@]23C=C[C@]2(C[C@@H](O)CC[C@]12C)OO3` (stereo not given in full) here?
The EC50 was 11 µg/mL (≈ 25.6 µM).

What about the EC50 (KB) of the same compound?
The EC50 was 9.97 µg/mL (≈ 23.3 µM).

Which results are given for `CC(C)=CCC[C@]1(C)[C@@H](CC=C(C)C)C[C@@]2(CC=C(C)C)C(=O)[C@@](CC=C(C)C)(CC3=C[C@@H]4[C@@H](C(C)C)CC[C@@](C)(OO)[C@H]4CC3)C(=O)[C@]1(C(=O)C(C)C)C2=O` [HYDROPEROXYCADIFORIN]?
IC50 [7]: 0.5 µg/mL (≈ 0.647 µM); IC50 [8]: 0.0647 µM; IC50 [9]: 0.05 µg/mL (≈ 0.0647 µM); IC50 [10]: 0.0647 µM; IC50 [11]: 0.0647 µM

Which results are given for `COC1=CC(=O)c2c(O)c(OC)c3c(c2C1=O)-c1c2c(c(O)c(OC)c1[C@@H](C(C)=O)[C@@](C)(O)C3)C(=O)C=C(OC)C2=O` [HYPOCRELLIN D]?
IC50 (A549): 8.8 µg/mL (≈ 15.2 µM); IC50 [12]: 38.4 µg/mL (≈ 66.4 µM); IC50 [13]: 1.8 µg/mL (≈ 3.11 µM)

— ChEMBL document CHEMBL1149799, “Bioactive peroxides as potential therapeutic agents” (Eur J Med Chem, 2008)
